Data reported in US11559510B2, “Isoflavonoid composition with improved pharmacokinetics” (NOXOPHARM LIMITED, priority 2016, dated 2023).
Like-named read-outs stand apart in the source and are kept apart here.

Test: Plasma pharmacokinetic studies of idronoxil in rats (rectal in cocoa butter vs intestinal in lipid emulsion)
Type: in vivo, Male Sprague-Dawley rats
Procedure: The objective of this study in rodents is to determine the plasma pharmacokinetics of idronoxil after rectal delivery and intestinal delivery in lipids (cocoa butter or emulsion).
Part (1); n=3 rats: Rectal administration of idronoxil in cocoa butter liquid formulation, collection of plasma.
Part (2); n=3 rats: Intestinal administration (intraduodenal infusion) of idronoxil in lipid formulation, collection of plasma.
3 mg idronoxil per rat (equivalent to 10 mg/kg idronoxil).
Preparation of lipid formulation for intestinal dosing: Briefly, 3 mg of idronoxil, 80 mg oleic acid and 50 mg Tween 80 were mixed in a glass vial as the lipid phase. An aqueous phase consisting of 5.6 mL phosphate buffered saline (PBS, pH 7.4) was subsequently added to the lipid phase and the formulation emulsified by ultrasonication with a Misonix XL 2020 ultrasonic processor equipped with a 3.2-mm microprobe tip running at an amplitude of 240 μm and a frequency of 20 kHz for 4 min at room temperature.
Dose administration: The lipid formulations were infused into the duodenum of the rats at 2.8 mL/h for 2 h. After that, normal saline was infused into the duodenum at 2.8 mL/h for the remainder of the experiment to hydrate the animals.
Preparation of cocoa butter formulation for rectal dosing: Briefly, 100 mg of the cocoa butter was weighed into a homogenizer glass tube and melted at 32 degrees Celsius. 3 mg of idronoxil was then added and the formulation mixed manually with the homogenizer.
Dose administration: The warmed/melted cocoa butter formulations were dosed into the rectum via placing the tip of a 3 cm plastic mouse oral gavage device attached to a 1 ml plastic syringe exactly 1 cm into the rectum. The formulation was dosed over 15 sec. After that, normal saline was infused into the duodenum at 2.8 mL/h for the remainder of the experiment to hydrate the animals.
Male Sprague-Dawley rats (n=3 per group, body weight 300±40 g) were used in the study. Each animal was fasted overnight prior to surgical cannulation of the carotid artery and duodenum.
The rats were anaesthetized (using isoflurane anesthesia), placed on a heated pad at 37° C. and cannulas were inserted into the duodenum (for dosing of lipid formulation and rehydration) and carotid artery (for blood collection).
Post-surgery, rats were re-hydrated for 0.5 h via intraduodenal infusion of normal saline at 2.8 mL/h prior to dosing via intraduodenal or rectal route.
Plasma collection: Plasma samples were collected for 8 h into Eppendorf tubes containing 5 μL of 1,000 IU/mL heparin. Aliquots (20 μL) of each hourly collected samples were transferred into labelled 1.5 mL Eppendorf tubes. Aliquoted and original bulk samples were stored at −20° C. until analysis.
Sample analysis: Plasma concentrations of idronoxil were measured by the HMST-lab using a validated HPLC-MS/MS method. Briefly, LC-MS analysis was performed on a Shimadzu 8050 triple quadrupole mass spectrometer coupled with a Shimadzu Nexera X2 UHPLC. MS analysis was conducted in positive mode electrospray ionisation and quantitation of the analytes performed in MRM mode. The column employed was a Phenomenex Kinetex EVO C18 column (2.6 μm particle size, 50×2.1 mm i.d.) equipped with a Phenomenex Security Guard column with C18 packing material. The column was maintained at 40-C. The mobile phase consisted of 0.2% formic acid in water (Mobile Phase A) and 100% acetonitrile (Mobile Phase B). Separations were conducted using a flow rate of 0.4 mL/min and an injection volume of 6 μL. Samples were controlled in the autosampler at a temperature of 10° C.
Non-compartmental pharmacokinetic (PK) analysis: The elimination rate constant (slope), half-life (i.e., 0.693/k), and mean residence time (MRT) were calculated using excel. The area under the plasma-concentration time curves from time zero to 8 h (AUC0-8 h) were calculated using the trapezoid rule to the last measured time point.

[1] = male, Sprague-Dawley, rat, plasma, other: intraduodenal infusion, 10 mg/kg, Intestinal delivery (intraduodenal infusion), lipid emulsion, 10 mg/kg, read-out: Idronoxil Plasma Concentration Rat 2
[2] = male, Sprague-Dawley, rat, plasma, other: intraduodenal infusion, 10 mg/kg, Intestinal delivery (intraduodenal infusion), lipid emulsion, 10 mg/kg, read-out: Idronoxil Plasma Concentration Rat 3
[3] = male, Sprague-Dawley, rat, plasma, other: intraduodenal infusion, 10 mg/kg, Intestinal delivery (intraduodenal infusion), lipid emulsion, 10 mg/kg, read-out: Idronoxil Plasma Concentration Mean
[4] = male, Sprague-Dawley, rat, plasma, other: intraduodenal infusion, 10 mg/kg, Intestinal delivery (intraduodenal infusion), lipid emulsion, 10 mg/kg, read-out: Idronoxil Plasma Concentration Rat 1
[5] = male, Sprague-Dawley, rat, plasma, other: rectal, 10 mg/kg, Rectal delivery, cocoa butter, 10 mg/kg, read-out: Idronoxil Plasma Concentration Mean
[6] = male, Sprague-Dawley, rat, plasma, other: rectal, 10 mg/kg, Rectal delivery, cocoa butter, 10 mg/kg, read-out: Idronoxil Plasma Concentration Rat 1
[7] = male, Sprague-Dawley, rat, plasma, other: rectal, 10 mg/kg, Rectal delivery, cocoa butter, 10 mg/kg, read-out: Idronoxil Plasma Concentration Rat 2
[8] = male, Sprague-Dawley, rat, plasma, other: rectal, 10 mg/kg, Rectal delivery, cocoa butter, 10 mg/kg, read-out: Idronoxil Plasma Concentration Rat 3
[9] = oral delivery (intestinal delivery model)

Which concentration at 2 h [1] does the source give for `Oc1ccc(C2=Cc3ccc(O)cc3OC2)cc1` [Idronoxil, 2H-1-Benzopyran-7-0,1,3-(4-hydroxyphenyl)] here?
The concentration at 2 h was 140 ng/mL.

And the concentration at 2 h [2]?
Its concentration at 2 h is 136 ng/mL.

And the concentration at 3 h [3]?
Its concentration at 3 h is 24.3 ng/mL.

What about the concentration at 3 h [4] of the same compound?
Its concentration at 3 h is 17.8 ng/mL.

What about the concentration at 3 h [1] of the same compound?
The concentration at 3 h was 38.2 ng/mL.

What about the concentration at 3 h [2] of the same compound?
The concentration at 3 h was 16.8 ng/mL.

And the concentration at 4 h [3]?
The concentration at 4 h was 9.57 ng/mL.

And the concentration at 4 h [4]?
The concentration at 4 h was 16.1 ng/mL.

And the concentration at 4 h [1]?
The concentration at 4 h was 7.03 ng/mL.

What about the concentration at 4 h [2] of the same compound?
Its concentration at 4 h is 5.62 ng/mL.

What about the concentration at 5 h [3] of the same compound?
The concentration at 5 h was 9.27 ng/mL.

And the concentration at 5 h [4]?
The concentration at 5 h was 17.4 ng/mL.

What about the concentration at 5 h [1] of the same compound?
Its concentration at 5 h is 4.46 ng/mL.

And the concentration at 5 h [2]?
The concentration at 5 h was 6 ng/mL.

What about the concentration at 6 h [3] of the same compound?
Its concentration at 6 h is 4.79 ng/mL.

What about the concentration at 6 h [4] of the same compound?
The concentration at 6 h was 2.86 ng/mL.

And the concentration at 6 h [1]?
Its concentration at 6 h is 3.79 ng/mL.

And the concentration at 6 h [2]?
Its concentration at 6 h is 7.72 ng/mL.

What about the concentration at 7 h [3] of the same compound?
Its concentration at 7 h is 5.04 ng/mL.

What about the concentration at 7 h [4] of the same compound?
The concentration at 7 h was 4.68 ng/mL.

And the concentration at 7 h [1]?
The concentration at 7 h was 6.75 ng/mL.

And the concentration at 7 h [2]?
The concentration at 7 h was 3.7 ng/mL.

What about the concentration at 8 h [3] of the same compound?
Its concentration at 8 h is 5.14 ng/mL.

What about the concentration at 8 h [4] of the same compound?
The concentration at 8 h was 7.83 ng/mL.

And the concentration at 8 h [1]?
Its concentration at 8 h is 4.23 ng/mL.

What about the concentration at 8 h [2] of the same compound?
Its concentration at 8 h is 3.37 ng/mL.

And the concentration at 0 h (male, Sprague-Dawley, rat, plasma, other: rectal, 10 mg/kg, Rectal delivery, cocoa butter, 10 mg/kg, 0 hr, read-out: Idronoxil Plasma Concentration Mean)?
The concentration at 0 h was 0 ng/mL.

And the concentration at 1 h [5]?
The concentration at 1 h was 49.4 ng/mL.

And the concentration at 1 h [6]?
Its concentration at 1 h is 26.7 ng/mL.

And the concentration at 1 h [7]?
Its concentration at 1 h is 96.5 ng/mL.

What about the concentration at 1 h [8] of the same compound?
The concentration at 1 h was 24.9 ng/mL.

And the concentration at 2 h [5]?
The concentration at 2 h was 42.9 ng/mL.

What about the concentration at 2 h [6] of the same compound?
The concentration at 2 h was 15.9 ng/mL.

What about the concentration at 2 h [7] of the same compound?
Its concentration at 2 h is 88.1 ng/mL.

And the concentration at 2 h [8]?
Its concentration at 2 h is 24.7 ng/mL.

What about the concentration at 3 h [5] of the same compound?
The concentration at 3 h was 37.3 ng/mL.

And the concentration at 3 h [6]?
The concentration at 3 h was 15.9 ng/mL.

What about the concentration at 3 h [7] of the same compound?
Its concentration at 3 h is 74.2 ng/mL.

And the concentration at 3 h [8]?
Its concentration at 3 h is 21.8 ng/mL.

And the concentration at 4 h [5]?
The concentration at 4 h was 30.1 ng/mL.

What about the concentration at 4 h [6] of the same compound?
Its concentration at 4 h is 14.4 ng/mL.

What about the concentration at 4 h [7] of the same compound?
The concentration at 4 h was 53.7 ng/mL.

And the concentration at 4 h [8]?
The concentration at 4 h was 22.3 ng/mL.

What about the concentration at 5 h [5] of the same compound?
The concentration at 5 h was 46.3 ng/mL.

What about the concentration at 5 h [6] of the same compound?
Its concentration at 5 h is 27.9 ng/mL.

And the concentration at 5 h [7]?
The concentration at 5 h was 71.4 ng/mL.

What about the concentration at 5 h [8] of the same compound?
Its concentration at 5 h is 39.5 ng/mL.

And the concentration at 6 h [5]?
Its concentration at 6 h is 30.2 ng/mL.

And the concentration at 6 h [6]?
Its concentration at 6 h is 17.8 ng/mL.

And the concentration at 6 h [7]?
Its concentration at 6 h is 51.3 ng/mL.

And the concentration at 6 h [8]?
Its concentration at 6 h is 21.6 ng/mL.

What about the concentration at 7 h [5] of the same compound?
Its concentration at 7 h is 25 ng/mL.

And the concentration at 7 h [6]?
Its concentration at 7 h is 20.6 ng/mL.

What about the concentration at 7 h [7] of the same compound?
The concentration at 7 h was 43 ng/mL.

And the concentration at 7 h [8]?
Its concentration at 7 h is 11.4 ng/mL.

What about the concentration at 8 h [5] of the same compound?
Its concentration at 8 h is 18.4 ng/mL.

And the concentration at 8 h [6]?
Its concentration at 8 h is 5.74 ng/mL.

And the concentration at 8 h [7]?
The concentration at 8 h was 33.4 ng/mL.

What about the concentration at 8 h [8] of the same compound?
The concentration at 8 h was 16.1 ng/mL.

What about the “time at which drug levels are sub-therapeutic” value [9] of the same compound?
Its value is less than 4 h.

And the “time within which drug levels substantially fall” value [9]?
The value was 2 to 3 h.

And the plasma concentration (rats, 10 mg/kg body weight, single rectal administration, up to 8 hours)?
The plasma concentration was 35 to 40 ng/mL.

What about the “time for which therapeutic levels of free idronoxil were maintained in the blood” value (rectal delivery) of the same compound?
The value was “at least 8 hours”.

And the “half-life, rectal relative to oral idronoxil” value (rectal vs oral)?
Its value is “at least 5 times”.

What about the “time for which idronoxil levels remain almost constant (steady-state levels) post administration” value (rectally-dosed rats) of the same compound?
The value was “at least 8 hours”.
